How the values were obtained:
human GRα protein = biological target: T1, human GRα protein (Homo sapiens, UniProt P04150); test: Binding inhibitory assay (displacement of 3H-dexamethasone from the cytoplasm fraction of baculovirus-infected insect cells); details: 100 nM test compound; 3H-Dex; NSB with 10 μM dexamethasone; read-out: Binding Inhibitory ratio (%) of 100 nM of test compound
T1 construct: made in house; host or cells: insect cells infected with baculovirus; cytoplasm fraction used
T1 sequence (P04150 1-777): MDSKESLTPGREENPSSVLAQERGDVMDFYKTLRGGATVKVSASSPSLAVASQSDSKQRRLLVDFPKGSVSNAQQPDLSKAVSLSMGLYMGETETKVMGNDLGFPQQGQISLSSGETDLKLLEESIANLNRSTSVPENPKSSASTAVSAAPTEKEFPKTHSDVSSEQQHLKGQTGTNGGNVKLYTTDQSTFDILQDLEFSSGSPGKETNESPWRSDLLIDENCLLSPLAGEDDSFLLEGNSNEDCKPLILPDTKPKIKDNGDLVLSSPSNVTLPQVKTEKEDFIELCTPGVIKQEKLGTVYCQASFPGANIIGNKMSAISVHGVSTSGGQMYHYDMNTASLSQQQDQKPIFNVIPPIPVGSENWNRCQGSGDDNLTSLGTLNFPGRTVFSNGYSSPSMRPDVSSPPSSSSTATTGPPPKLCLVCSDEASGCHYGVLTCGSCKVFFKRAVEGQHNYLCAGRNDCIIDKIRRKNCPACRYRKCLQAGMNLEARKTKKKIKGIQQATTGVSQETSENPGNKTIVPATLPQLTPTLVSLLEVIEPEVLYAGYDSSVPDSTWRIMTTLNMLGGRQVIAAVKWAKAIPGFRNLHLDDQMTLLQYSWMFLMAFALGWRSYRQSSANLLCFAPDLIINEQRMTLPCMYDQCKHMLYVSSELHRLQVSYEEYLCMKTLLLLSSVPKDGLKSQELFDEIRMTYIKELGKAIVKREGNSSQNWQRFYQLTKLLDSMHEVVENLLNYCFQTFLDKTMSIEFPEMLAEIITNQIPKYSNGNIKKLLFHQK
In short: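 Cytosol from baculovirus-infected insect cells expressing human GRα incubated with compound and 10 nM ³H-dexamethasone solution in Tris/EDTA/glycerol/DTT/molybdate buffer, pH 7.6, 1% DMSO, 16–20 h at 4 °C. Free ligand removed with dextran-coated charcoal, supernatant counted; NSB from 10 μM dexamethasone, inhibition % vs DMSO, duplicates.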

H4-III-E cells = test: TAT (tyrosine aminotransferase) assay; format: cell-based; details: for Antagonistic activity of 10 μM test compound: 10 μM test compound together with 0.005 μM dexamethasone, inhibitory ratio against TAT activity increase by Dex
In short: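 Rat hepatoma H4-III-E cells were treated overnight with compound, either alone for agonism or together with 0.005 μM dexamethasone for antagonism. TAT activity in lysates was read at 331 nm after reaction at 37 °C. Activity was expressed as % of the dexamethasone response, or as % inhibition of the dexamethasone-induced increase, and scored at a 10% cutoff.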

[1] = 10 μM test compound alone, relative to maximum Dex-induced TAT activity (100%)

| Structure (SMILES) | inhibition at 0.1 µM (human GRα protein) [%] | Agonistic activity of 10 μM test compound (H4-III-E cells; [1]) | Antagonistic activity of 10 μM test compound (H4-III-E cells) | activation at 10 µM (H4-III-E cells; 10 μM test compound alone, relative to maximum Dex-induced TAT activity (100%), read-out: Agonistic activity of 10 μM test compound) [%] |
| --- | --- | --- | --- | --- |
| O=C(c1cccs1)C1CCN(CC(O)(c2cn(Cc3ccccc3)c3cc([N+](=O)[O-])ccc23)C(F)(F)F)CC1 (stereo not drawn) [Example 194, {1-[2-(1-Benzyl-6-nitro-1H-indol-3-yl)-3,3,3-trifluoro-2-hydroxypropyl]piperidin-4-yl}(2-thienyl)methanone] | 94 | ◯ | ◯ |  |
| O=C(c1cccnc1)C1CCN(CC(O)(c2cn(Cc3ccccc3)c3cc([N+](=O)[O-])ccc23)C(F)(F)F)CC1 (stereo not drawn) [Example 197, {1-[2-(1-Benzyl-6-nitro-1H-indol-3-yl)-3,3,3-trifluoro-2-hydroxypropyl]piperidin-4-yl}(pyridin-3-yl)methanone] | 94 | ◯ | ◯ |  |
| CCOC(=O)Cc1ccc(OC2CCN(CC(O)(c3cn(Cc4ccccc4)c4cc([N+](=O)[O-])ccc34)C(F)(F)F)CC2)c(OC)c1 (stereo not drawn) [Example 200, Ethyl[4-({1-[2-(1-benzyl-6-nitro-1H-indol-3-yl)-3,3,3-trifluoro-2-hydroxypropyl]-piperidin-4-yl}oxy)-3-methoxyphenyl]acetate] | 88 | ◯ | ◯ |  |
| COc1cc(CC(=O)O)ccc1OC1CCN(CC(O)(c2cn(Cc3ccccc3)c3cc([N+](=O)[O-])ccc23)C(F)(F)F)CC1 (stereo not drawn) [Example 201, [4-({1-[2-(1-Benzyl-6-nitro-1H-indol-3-yl)-3,3,3-trifluoro-2-hydroxypropyl]-piperidin-4-yl}oxy)-3-methoxyphenyl]acetic acid] | 99 | ◯ | ◯ |  |
| CN1CCCN(C(=O)c2ccc(OC3CCN(CC(O)(c4cn(Cc5ccccc5)c5cc([N+](=O)[O-])ccc45)C(F)(F)F)CC3)cc2)CC1 (stereo not drawn) [Example 203, 2-(1-Benzyl-6-nitro-1H-indol-3-yl)-1,1,1-trifluoro-3-(4-{4-[(4-methyl-1,4-diazepan-1-yl)carbonyl]phenoxy}piperidin-1-yl)propan-2-ol] | 94 | ◯ | ◯ |  |
| COc1ccc(Cn2cc(C(O)(CN3CCC(Oc4ccc(CC(=O)O)cc4OC)CC3)C(F)(F)F)c3ccc(C#N)cc32)cc1 (stereo not drawn) [Example 226, {4-[(1-{2-[6-Cyano-1-(4-methoxybenzyl)-1H-indol-3-yl]-3,3,3-trifluoro-2-hydroxypropyl}piperidin-4-yl)oxy]-3-methoxyphenyl}acetic acid] | 96 | ◯ | ◯ |  |
| COc1cc(CC(=O)O)ccc1OC1CCN(CC(O)(c2cn(Cc3ccncc3)c3cc(C#N)ccc23)C(F)(F)F)CC1 (stereo not drawn) [Example 235, {4-[(1-{2-[6-Cyano-1-(pyridin-4-ylmethyl)-1H-indol-3-yl]-3,3,3-trifluoro-2-hydroxypropyl}piperidin-4-yl)oxy]-3-methoxyphenyl}acetic acid] | 79 |  | ◯ | < 10 |

From patent US20100190768A1, “NOVEL FUSED PYROLE DERIVATIVE” (Dainippon Sumitomo Pharma Co., Ltd., priority 2005, published 2010)
